Assay results: patent US20250221410A1, “SUBSTITUTED 2-C-AZINES AND SALTS THEREOF, AND USE THEREOF AS HERBICIDAL ACTIVE SUBSTANCES” (BAYER AKTIENGESELLSCHAFT, priority 2022, published 2025)

Tests used:
Assay type in all cases: in vivo
VERPE: Veronica persica [1] = test: Post-emergence herbicidal efficacy at 1280 g/ha, VERPE; settings: visual rating about 3 weeks after treatment vs untreated controls
In short: (§1)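 Plants treated 2–3 weeks post-sowing, one-leaf stage, foliar spray of WP or EC preparations with 0.5% additive at a water rate equivalent to 600 L/ha. Kept under optimum greenhouse conditions ~3 weeks, then scored visually on a 0–100% scale.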

[2] = tested on: ABUTH: Abutilon theophrasti; test: Post-emergence herbicidal efficacy at 1280 g/ha, ABUTH; settings: rated visually after about 3 weeks vs untreated controls, 100% = plants have died, 0% = like control plants
In short: as §1

KCHSC: Kochia scoparia [3] = test: Post-emergence herbicidal efficacy at 1280 g/ha, KCHSC; settings: visual rating about 3 weeks after treatment vs untreated controls
In short: as §1

POAAN: Poa annua [4] = test: Pre-emergence herbicide efficacy at 1280 g/ha, POAAN; settings: visual scoring after about 3 weeks vs untreated controls
In short: (§2)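 Compound applied pre-emergence in WP or EC form to the covering soil over sown seeds, in aqueous spray with 0.5% additive (600 L/ha water). After greenhouse culture for about 3 weeks, damage is rated visually from 0% (as control) to 100% (plants dead).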

[5] = tested on: AMARE: Amaranthus retroflexus; test: Post-emergence herbicidal efficacy at 1280 g/ha, AMARE; settings: rated visually after about 3 weeks vs untreated controls, 100% = plants have died, 0% = like control plants
In short: as §1

SETVI: Setaria viridis [6] = test: Pre-emergence herbicide efficacy at 1280 g/ha, SETVI; settings: visual scoring vs untreated controls
In short: as §2

[7] = tested on: DIGSA: Digitaria sanguinalis; test: Post-emergence herbicidal efficacy at 1280 g/ha, DIGSA; settings: rated visually after about 3 weeks vs untreated controls, 100% = plants have died, 0% = like control plants
Experimental: (§3) Seeds of mono- and dicotyledonous weed plants were placed in plastic pots in sandy loam soil (doubly sown with in each case one species of mono- or dicotyledonous weed plants per pot), covered with soil and cultivated in a greenhouse under controlled growth conditions. 2 to 3 weeks after sowing, the test plants were treated at the one-leaf stage. The compounds of the invention, formulated in the form of wettable powders (WP) or as emulsion concentrates (EC), were applied to the green parts of the plants as aqueous suspension or emulsion with addition of 0.5% additive at a water application rate equivalent to 600 litres per hectare. After the test plants had been kept in the greenhouse under optimum growth conditions for about 3 weeks, the activity of the preparations was rated visually in comparison to untreated controls. For example, 100% activity=the plants have died, 0% activity=like control plants. Tables A1 to A12 below show the effects of selected compounds of the general formula (I) according to Table 1 on various harmful plants and at an application rate corresponding to 1280 g/ha, which were obtained by the trial procedure specified above.

VERPE: Veronica persica [8] = test: Pre-emergence herbicide efficacy at 1280 g/ha, VERPE; settings: visual scoring vs untreated controls
In short: as §2

STEME: Stellaria media [9] = test: Post-emergence herbicidal efficacy at 1280 g/ha, STEME; settings: visual rating about 3 weeks after treatment vs untreated controls
In short: as §1

POAAN: Poa annua [10] = test: Post-emergence herbicidal efficacy at 1280 g/ha, POAAN; settings: visual rating about 3 weeks after treatment vs untreated controls
In short: as §1

[11] = tested on: ECHCG: Echinochloa crus-galli; test: Pre-emergence herbicide efficacy at 1280 g/ha, ECHCG; settings: visual scoring after about 3 weeks vs untreated controls
In short: as §2

[12] = tested on: DIGSA: Digitaria sanguinalis; test: Pre-emergence herbicide efficacy at 1280 g/ha, DIGSA; settings: visual scoring after about 3 weeks vs untreated controls
In short: as §2

KCHSC: Kochia scoparia [13] = test: Pre-emergence herbicide efficacy at 1280 g/ha, KCHSC; settings: visual scoring after about 3 weeks vs untreated controls
From the text: (§4) Seeds of mono- and dicotyledonous weed plants were placed in plastic pots in sandy loam soil (doubly sown with one species each of mono- or dicotyledonous weed plants per pot) and covered with soil. The compounds of the invention, formulated in the form of wettable powders (WP) or as emulsion concentrates (EC), were then applied to the surface of the covering soil as aqueous suspension or emulsion with addition of 0.5% additive at a water application rate of 600 litres per hectare (converted). After the treatment, the pots were placed in a greenhouse and kept under good growth conditions for the test plants. After about 3 weeks, the efficacy of the preparations was scored visually in comparison with untreated controls as percentages. For example, 100% activity=the plants have died, 0% activity=like control plants. Tables C1 to C12 below show the effects of selected compounds of the general formula (I) according to Table 1 on various harmful plants and at an application rate corresponding to 1280 g/ha, which were obtained by the trial procedure specified above.

[14] = tested on: ECHCG: Echinochloa crus-galli; test: Post-emergence herbicidal efficacy at 1280 g/ha, ECHCG; settings: rated visually after about 3 weeks vs untreated controls, 100% = plants have died, 0% = like control plants
Experimental: as §3

[15] = tested on: AMARE: Amaranthus retroflexus; test: Pre-emergence herbicide efficacy at 1280 g/ha, AMARE; settings: visual scoring after about 3 weeks vs untreated controls
In short: as §2

STEME: Stellaria media [16] = test: Pre-emergence herbicide efficacy at 1280 g/ha, STEME; settings: visual scoring vs untreated controls
In short: as §2

[17] = tested on: ABUTH: Abutilon theophrasti; test: Pre-emergence herbicide efficacy at 1280 g/ha, ABUTH; settings: visual scoring after about 3 weeks vs untreated controls
In short: as §2

SETVI: Setaria viridis [18] = test: Post-emergence herbicidal efficacy at 1280 g/ha, SETVI; settings: visual rating about 3 weeks after treatment vs untreated controls
Experimental: as §3

[19] = tested on: MATIN: Matricaria inodora; test: Pre-emergence herbicide efficacy at 1280 g/ha, MATIN; settings: visual scoring after about 3 weeks vs untreated controls
From the text: as §4

Row | Compound | Post-emergence efficacy against VERPE (VERPE: Veronica persica [1]) | Post-emergence efficacy at 1280 g/ha against ABUTH in % [2] | Post-emergence efficacy against KCHSC (KCHSC: Kochia scoparia [3]) | Pre-emergence efficacy against POAAN (POAAN: Poa annua [4]) | Post-emergence efficacy at 1280 g/ha against AMARE in % [5] | Pre-emergence efficacy against SETVI in % (SETVI: Setaria viridis [6]) | Post-emergence efficacy at 1280 g/ha against DIGSA in % [7] | Pre-emergence efficacy against VERPE in % (VERPE: Veronica persica [8]) | Post-emergence efficacy against STEME (STEME: Stellaria media [9]) | Post-emergence efficacy against POAAN (POAAN: Poa annua [10]) | Pre-emergence efficacy against ECHCG [11] | Pre-emergence efficacy against DIGSA [12] | Pre-emergence efficacy against KCHSC (KCHSC: Kochia scoparia [13]) | Post-emergence efficacy at 1280 g/ha against ECHCG in % [14] | Pre-emergence efficacy against AMARE [15] | Pre-emergence efficacy against STEME in % (STEME: Stellaria media [16]) | Pre-emergence efficacy against ABUTH [17] | Post-emergence efficacy against SETVI (SETVI: Setaria viridis [18]) | Pre-emergence efficacy against MATIN [19]
1 | Fc1ccc(Cc2ccccc2Cc2ncc(Cl)cn2)cc1 [Example 1-23] | 100% | 100% | 90% | 90% | 100% | 100% | 100% | 100% | 90% | 100% | 100% | 100% | 90% | 100% | 100% | 100% | 100% | 90% | –
2 | FC(F)(F)c1cnn(-c2ccccc2Cc2ncc(Cl)cn2)c1 [Example 1-42] | 90% | 90% | – | 90% | 100% | 100% | – | 90% | 90% | 90% | 90% | 100% | 100% | 90% | 100% | 100% | 100% | – | 90%
3 | Clc1cnc(Oc2ccccc2Cc2ncccn2)nc1 [Example 1-76] | 90% | – | – | – | 90% | – | – | 90% | – | – | – | – | – | – | 100% | 90% | 90% | – | 90%
4 | Fc1cnc(Cc2ccccc2Oc2ncc(F)cn2)nc1 [Example 1-89] | 100% | 90% | 100% | 100% | 100% | 90% | – | 100% | – | – | – | 100% | 100% | – | 100% | 90% | 100% | – | 100%
5 | Clc1ccc(Cc2ccccc2Oc2ncc(Cl)cn2)nc1 [Example 1-91] | 100% | 100% | 100% | 100% | 100% | 100% | 90% | 100% | 100% | 100% | 90% | 100% | 100% | – | 100% | 100% | 100% | 90% | 100%
6 | Fc1ccc(Cc2ccccc2Oc2ncc(F)cn2)nc1 [Example 1-93] | 100% | 90% | 100% | 100% | 100% | 100% | – | 100% | – | 100% | 100% | 100% | 100% | – | 100% | 100% | 100% | – | 100%
7 | Fc1cnc(Oc2ccccc2Cc2ccc(Cl)cn2)nc1 [Example 1-100] | 100% | 90% | 100% | 100% | 100% | 100% | – | 100% | 90% | 100% | 100% | 100% | 100% | – | 100% | 100% | 100% | 90% | 100%
8 | FC(F)(F)CCSc1ccccc1Cc1ncc(Cl)cn1 [Example 1-112] | 100% | 100% | 100% | 90% | 100% | 90% | 90% | 100% | 100% | 100% | 100% | 100% | 100% | 90% | 100% | 90% | 90% | 90% | –
9 | Fc1cnc(Cc2ccccc2-n2cc(C(F)(F)F)cn2)nc1 [Example 1-129] | 90% | 100% | 100% | 90% | 100% | 90% | – | 90% | 100% | 100% | 100% | 90% | 90% | – | 100% | 100% | 100% | – | 100%
